The record followed here is US20250120967A1, “TYROSINE KINASES INHIBITORS AND USES THEREOF” (GREAT NOVEL THERAPEUTICS BIOTECH & MEDICALS CORPORATION, priority 2023, published 2025).

What all share (assay): Tyrosine kinase inhibition assay
What all share (type): biochemical
Settings in all cases: single concentration 1.0 μM, read-out: percent inhibition

The target in assay [1] is AKT2 (PKB beta) (Homo sapiens, UniProt P31751). A digest of the protocol: (§1)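 Percent inhibition from a one-concentration (1.0 μM) Z′-LYTE biochemical screen at apparent-Km ATP; >80% scored as a hit.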
The target of assay [2] is T1, EPHB4 (Homo sapiens, UniProt P54760).
T1 sequence (P54760 16-987): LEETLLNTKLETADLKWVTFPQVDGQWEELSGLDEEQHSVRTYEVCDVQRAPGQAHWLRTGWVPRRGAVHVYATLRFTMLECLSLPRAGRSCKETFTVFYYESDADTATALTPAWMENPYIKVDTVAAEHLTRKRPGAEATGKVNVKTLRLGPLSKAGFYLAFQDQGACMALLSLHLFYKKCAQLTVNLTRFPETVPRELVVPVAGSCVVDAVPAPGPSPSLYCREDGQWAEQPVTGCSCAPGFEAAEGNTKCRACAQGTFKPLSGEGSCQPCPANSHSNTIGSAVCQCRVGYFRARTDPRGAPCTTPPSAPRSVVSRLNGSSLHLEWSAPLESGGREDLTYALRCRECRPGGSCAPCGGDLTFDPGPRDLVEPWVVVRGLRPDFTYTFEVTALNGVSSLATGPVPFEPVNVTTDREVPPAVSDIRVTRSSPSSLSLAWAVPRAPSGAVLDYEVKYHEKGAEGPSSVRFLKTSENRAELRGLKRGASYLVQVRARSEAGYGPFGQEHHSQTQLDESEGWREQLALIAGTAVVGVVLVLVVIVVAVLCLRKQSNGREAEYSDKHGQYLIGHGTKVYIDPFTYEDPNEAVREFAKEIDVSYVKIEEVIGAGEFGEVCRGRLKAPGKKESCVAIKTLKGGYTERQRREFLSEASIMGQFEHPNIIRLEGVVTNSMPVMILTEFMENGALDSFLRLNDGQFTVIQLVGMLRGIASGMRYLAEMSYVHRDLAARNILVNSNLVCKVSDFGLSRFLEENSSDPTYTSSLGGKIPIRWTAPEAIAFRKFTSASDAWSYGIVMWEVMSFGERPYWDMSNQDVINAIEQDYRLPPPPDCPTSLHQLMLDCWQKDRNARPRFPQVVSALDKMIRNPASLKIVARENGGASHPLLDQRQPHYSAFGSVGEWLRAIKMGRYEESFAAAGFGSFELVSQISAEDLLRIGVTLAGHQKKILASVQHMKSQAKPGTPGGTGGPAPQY
A digest of the protocol:
as §1

Assay [3] has as its target IGF1R (Homo sapiens, UniProt P08069). An outline of the steps:
as §1

The target in assay [4] is T2, ITK (Homo sapiens, UniProt Q08881).
T2 sequence (Q08881 1-620): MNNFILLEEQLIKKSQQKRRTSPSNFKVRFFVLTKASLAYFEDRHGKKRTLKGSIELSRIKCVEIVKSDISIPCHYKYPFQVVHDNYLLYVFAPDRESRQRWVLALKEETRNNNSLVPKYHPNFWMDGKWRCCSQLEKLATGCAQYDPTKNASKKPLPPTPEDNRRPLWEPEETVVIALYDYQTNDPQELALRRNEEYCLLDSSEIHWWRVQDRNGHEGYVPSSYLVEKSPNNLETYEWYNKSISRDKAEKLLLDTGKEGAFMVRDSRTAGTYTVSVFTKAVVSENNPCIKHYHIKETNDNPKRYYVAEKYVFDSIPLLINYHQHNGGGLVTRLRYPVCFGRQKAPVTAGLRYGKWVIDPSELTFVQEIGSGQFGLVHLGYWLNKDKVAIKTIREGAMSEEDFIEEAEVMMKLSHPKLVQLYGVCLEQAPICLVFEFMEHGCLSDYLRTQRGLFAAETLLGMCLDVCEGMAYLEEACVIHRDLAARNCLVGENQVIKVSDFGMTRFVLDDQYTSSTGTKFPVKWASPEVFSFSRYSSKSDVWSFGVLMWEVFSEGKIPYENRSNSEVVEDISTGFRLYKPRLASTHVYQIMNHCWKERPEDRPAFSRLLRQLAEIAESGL
A digest of the protocol: as §1

Assay [5] addresses MAPK8 (JNK1) (Homo sapiens, UniProt P45983). A digest of the protocol: as §1
Assay [6] concerns the target T3, TEC (Homo sapiens, UniProt P42680).
T3 sequence (P42680 1-631): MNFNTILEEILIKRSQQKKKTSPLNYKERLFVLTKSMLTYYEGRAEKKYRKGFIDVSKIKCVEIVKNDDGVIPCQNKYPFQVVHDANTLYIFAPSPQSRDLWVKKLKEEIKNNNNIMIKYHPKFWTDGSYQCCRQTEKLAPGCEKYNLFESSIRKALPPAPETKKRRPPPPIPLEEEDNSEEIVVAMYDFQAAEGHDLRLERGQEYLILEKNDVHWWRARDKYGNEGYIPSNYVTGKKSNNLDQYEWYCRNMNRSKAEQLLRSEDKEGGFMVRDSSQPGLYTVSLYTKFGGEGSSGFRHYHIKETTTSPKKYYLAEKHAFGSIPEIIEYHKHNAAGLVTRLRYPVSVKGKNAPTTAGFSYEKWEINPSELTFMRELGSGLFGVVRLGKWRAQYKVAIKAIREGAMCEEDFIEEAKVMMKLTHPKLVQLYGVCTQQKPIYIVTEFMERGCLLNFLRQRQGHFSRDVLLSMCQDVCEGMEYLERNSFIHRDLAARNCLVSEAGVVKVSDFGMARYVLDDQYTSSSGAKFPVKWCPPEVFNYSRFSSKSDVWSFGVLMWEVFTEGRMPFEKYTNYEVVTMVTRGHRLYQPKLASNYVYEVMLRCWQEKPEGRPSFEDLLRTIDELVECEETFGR
A digest of the protocol: as §1

Sequence of IGF1R (P08069 31-1367): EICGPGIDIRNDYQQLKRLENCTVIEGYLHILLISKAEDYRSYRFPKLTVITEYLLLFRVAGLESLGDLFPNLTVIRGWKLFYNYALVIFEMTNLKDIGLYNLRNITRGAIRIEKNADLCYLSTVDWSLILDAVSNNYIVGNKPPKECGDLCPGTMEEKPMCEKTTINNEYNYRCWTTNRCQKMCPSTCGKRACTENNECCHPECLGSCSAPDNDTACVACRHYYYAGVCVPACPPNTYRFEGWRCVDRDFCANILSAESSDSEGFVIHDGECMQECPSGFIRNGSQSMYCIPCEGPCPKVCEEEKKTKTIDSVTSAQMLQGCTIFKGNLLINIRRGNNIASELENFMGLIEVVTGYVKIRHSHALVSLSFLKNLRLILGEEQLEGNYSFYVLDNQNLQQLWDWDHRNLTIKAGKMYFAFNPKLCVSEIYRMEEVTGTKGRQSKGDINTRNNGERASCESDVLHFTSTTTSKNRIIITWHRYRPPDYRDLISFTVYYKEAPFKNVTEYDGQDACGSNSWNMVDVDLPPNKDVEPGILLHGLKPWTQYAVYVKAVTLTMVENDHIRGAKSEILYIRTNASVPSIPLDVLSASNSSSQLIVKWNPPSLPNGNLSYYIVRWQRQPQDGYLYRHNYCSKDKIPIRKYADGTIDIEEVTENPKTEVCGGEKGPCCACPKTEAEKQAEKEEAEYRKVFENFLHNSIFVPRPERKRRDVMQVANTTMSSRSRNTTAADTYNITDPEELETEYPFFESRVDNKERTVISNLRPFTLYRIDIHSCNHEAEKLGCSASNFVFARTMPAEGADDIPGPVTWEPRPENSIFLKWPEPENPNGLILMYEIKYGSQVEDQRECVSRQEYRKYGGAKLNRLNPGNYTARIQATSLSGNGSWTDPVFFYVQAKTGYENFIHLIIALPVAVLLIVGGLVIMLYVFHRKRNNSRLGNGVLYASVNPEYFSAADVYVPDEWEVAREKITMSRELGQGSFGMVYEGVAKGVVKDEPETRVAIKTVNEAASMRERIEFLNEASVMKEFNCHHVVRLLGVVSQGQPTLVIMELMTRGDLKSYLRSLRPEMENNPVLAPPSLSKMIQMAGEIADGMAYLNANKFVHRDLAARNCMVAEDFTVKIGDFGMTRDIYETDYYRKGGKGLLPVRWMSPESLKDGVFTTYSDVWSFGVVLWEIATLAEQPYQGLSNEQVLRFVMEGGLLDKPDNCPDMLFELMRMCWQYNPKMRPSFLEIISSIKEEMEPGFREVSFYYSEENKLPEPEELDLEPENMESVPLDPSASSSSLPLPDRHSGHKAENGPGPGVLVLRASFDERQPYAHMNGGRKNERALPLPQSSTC
Sequence of AKT2 (PKB beta) (P31751 whole entry): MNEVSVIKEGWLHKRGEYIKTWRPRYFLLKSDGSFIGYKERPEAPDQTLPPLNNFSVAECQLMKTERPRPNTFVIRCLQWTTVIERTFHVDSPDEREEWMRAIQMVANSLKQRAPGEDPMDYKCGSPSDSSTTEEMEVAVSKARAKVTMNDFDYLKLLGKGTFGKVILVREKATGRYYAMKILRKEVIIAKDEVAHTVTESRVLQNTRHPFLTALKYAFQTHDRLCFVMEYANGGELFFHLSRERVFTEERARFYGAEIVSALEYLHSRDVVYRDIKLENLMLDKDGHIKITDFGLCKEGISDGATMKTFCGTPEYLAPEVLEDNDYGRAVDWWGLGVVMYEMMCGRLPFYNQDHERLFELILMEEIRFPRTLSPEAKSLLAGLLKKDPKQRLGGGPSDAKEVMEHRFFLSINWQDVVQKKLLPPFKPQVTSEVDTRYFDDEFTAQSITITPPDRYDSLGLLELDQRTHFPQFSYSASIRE
Sequence of MAPK8 (JNK1) (P45983 whole entry): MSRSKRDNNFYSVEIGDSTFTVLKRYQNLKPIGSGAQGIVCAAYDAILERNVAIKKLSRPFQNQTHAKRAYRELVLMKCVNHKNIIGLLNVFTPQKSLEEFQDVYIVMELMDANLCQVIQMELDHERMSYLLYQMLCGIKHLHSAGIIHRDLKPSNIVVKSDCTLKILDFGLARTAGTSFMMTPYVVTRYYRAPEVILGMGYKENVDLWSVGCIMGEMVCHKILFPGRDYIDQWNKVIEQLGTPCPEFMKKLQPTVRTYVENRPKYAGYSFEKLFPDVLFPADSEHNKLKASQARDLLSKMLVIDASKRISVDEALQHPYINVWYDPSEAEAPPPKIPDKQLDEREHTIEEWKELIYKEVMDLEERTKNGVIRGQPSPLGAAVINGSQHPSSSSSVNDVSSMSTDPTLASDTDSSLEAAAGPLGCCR

`COc1cc2nccc(Oc3ccc(NC(=O)C4(C(=O)Nc5ccc(F)cc5)CC4)cc3)c2cc1OC` [Cabozantinib, reference compound]: the inhibition at 1 µM in assay [1] was 17%; in assay [2], 93%; in assay [3], 15%; in assay [4] it was 15%; in assay [5], -2%; in assay [6], 5%.

As for `COc1cc2nccc(Oc3ccc(NC(=O)C4(C(=O)Nc5ccc(F)cc5)CC4)cc3F)c2cc1Oc1ccc(N)cc1F` [Cbo-23], the inhibition at 1 µM in assay [1] is 0%; in assay [2] it was 103%; in assay [3], 52%; in assay [4], 54%; in assay [5], -2%; in assay [6], 37%.

In the case of `COc1cc2nccc(Oc3ccc(NC(=O)C4(NC(=O)c5ccc(F)cc5)CC4)cc3F)c2cc1Oc1ccc(N)cc1F` [Cbo-10], the inhibition at 1 µM in assay [1] came to 5%; in assay [2], 50%; in assay [3], 27%; in assay [4], 25%; in assay [5], 32%; in assay [6], 80%.

As to `COc1cc2nccc(Oc3ccc(NC(=O)C4(NC(=O)c5ccc(F)cc5)CC4)cc3F)c2cc1OC` [Cbo-02, N-(1-((4-((6,7-diMethoxyquinolin-4-yl)oxy)-3-fluorophenyl)carbamoyl)cyclopropyl)-4-fluorobenzamide], the inhibition at 1 µM in assay [1] turned out to be 10%; in assay [2], 27%; in assay [3], 13%; in assay [4], 8%; in assay [5] it was 5%; in assay [6], 29%.

For `COc1cc2nccc(Oc3ccc(NC(=O)C4(NC(=O)c5ccc(F)cc5)CC4)cc3F)c2cc1Oc1c(F)cc(N)cc1F` [Cbo-14], the inhibition at 1 µM was 10% in assay [1]; 76% in assay [2]; 35% in assay [3]; 28% in assay [4]; 41% in assay [5]; 77% in assay [6].

By inhibition is commonly meant the relative decrease from the control value, in per cent.
